Measurements published in patent US10829473B2, “Modulators of the cystic fibrosis transmembrane conductance regulator protein and methods of use” (AbbVie Overseas S.Á.R.L., priority 2017, dated 2020).
pEC50: −log10 of the molar value. Like-named read-outs stand apart in the source and are kept apart here. Marks after values point to notes of the source that are not given here.

Target: T1, F508delCFTR (Homo sapiens, UniProt P13569, DEL508-508)
T1 construct: expressed in transfected cells; host or cells: CFBE41o- human lung derived epithelial cells (CFBE41o-F508delCFTR-HRP), doxycycline-inducible
Test: Cell Surface Expression-Horse Radish Peroxidase (CSE-HRP) Assay;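 on EC50 (with co-corrector): co-corrector chromenyl benzoic acid corrector at 2 or 3 µM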
Type: cell-based
Settings: for Maximum % activity (with co-corrector) / Emax: maximum at any tested concentration; for Emax: read-out: Maximum % activity (without co-corrector)
Description: A cellular assay for measuring the F508delCFTR cell surface expression after correction with test compounds either without or with a co-corrector (2 μM of 3-[(2R,4R)-4-({[1-(2,2-difluoro-1,3-benzodioxol-5-yl)cyclopropyl]carbonyl}amino)-7-methoxy-3,4-dihydro-2H-chromen-2-yl]benzoic acid), was developed in human lung derived epithelial cell line (CFBE4lo−) (Veit G et al, (2012) Mol Biol Cell. 23(21): 4188-4202). The development was achieved by expressing the F508delCFTR mutation along with a horseradish peroxidase (HRP) in the fourth exofacial loop, and then measuring the HRP activity using luminescence readout from these cells, CFBE410-F508delCFTR-HRP, that were incubated overnight with the test corrector compounds, either without or with the co-corrector. For this primary assay, the CFBE410-F508delCFTR-HRP cells were plated in 384-well plates (Greiner Bio-one; Cat 781080) at 4,000 cells/well along with 0.5 μg/mL doxycycline to induce the F508delCFTR-HRP expression and further incubated at 37° C., 5% CO2 for 68-72 hours. The test compounds were then added either without or with a co-corrector at the required concentrations and further incubated for 18-24 hours at 33° C. The highest concentration tested was 20 μM or 30 μM (GI-1 to GIII-36) with an 8-point concentration response curve using a 3-fold dilution in both the test compound without or with the co-corrector. Three replicate plates were run to determine one EC50. All plates contained negative controls (dimethyl sulfoxide, DMSO) and positive control (2 μM or 3 μM (GI-1 to GIII-36) of 3-[(2R,4R)-4-({[1-(2,2-difluoro-1,3-benzodioxol-5-yl)cyclopropyl]carbonyl}amino)-7-methoxy-3,4-dihydro-2H-chromen-2-yl]benzoic acid) as well as on-plate concentration response of the positive control. Post incubation, the plates were washed 5× times with Dulbecco's phosphate buffered saline (DPBS), followed by the addition of the HRP substrate, luminol (50 4), and measuring the HRP activity using luminescence readout on EnVision® Multilabel Plate Reader (Perkin Elmer; product number 2104-0010). The raw counts from the experiment were analyzed using Accelrys® Assay Explorer v3.3.
Z′ greater than 0.5 was used as passing quality control criteria for the plates.
The Z′ is defined as: 1−[3*SDPositve Control+3*SDNegative Control/Absolute(MeanPositive Control−MeanNegative Control)] wherein “SD” is standard deviation.
The % activity measured at each of the 8 test concentrations of the test compound added either without or with a co-corrector (2 μM or 3 μM (GI-1 to GIII-36) of 3-[(2R,4R)-4-({[1-(2,2-difluoro-1,3-benzodioxol-5-yl)cyclopropyl]carbonyl}amino)-7-methoxy-3,4-dihydro-2H-chromen-2-yl]benzoic acid) was normalized to the on-plate positive control using the following formulae: % activity (Test compound without co-corrector)=[(test compound without co-corrector response DMSO response)/(positive control response DMSO response)]*100 % activity (Test compound with co-corrector)=[(test compound with co-corrector response DMSO response)/(positive control response DMSO response)]*100
The maximum % activity achieved for the test compound either without or with a co-corrector at any tested concentration is presented in Table 6 along with the respective EC50's calculated using the following general sigmoidal curve with variable Hill slope equation (described as Model 42 in the Accelrys® Assay Explorer v3.3 software): y=(a−d)/(1+(x/c)b)+d
General sigmoidal curve with concentration, response, top, bottom, EC50 and Hill slope. This model describes a sigmoidal curve with an adjustable baseline, a. The equation can be used to fit curves where response is either increasing or decreasing with respect to the independent variable, “x”.
“x” is a concentration of drug under test.
“a” is the maximum response, and “d” is the minimum response
“c” is the inflection point (EGO for the curve. That is, “y” is halfway between the lower and upper asymptotes when x=c.
“b” is the slope-factor or Hill coefficient. […]

[1] = test compound with co-corrector
[2] = test compound with co-corrector, read-out: EC50 (with co-corrector)
[3] = test compound without co-corrector
[4] = test compound without co-corrector, read-out: EC50 (without co-corrector)
[5] = test compound alone, without co-corrector, read-out: EC50 (without co-corrector)
[6] = with co-corrector, read-out: EC50 (with co-corrector)

T1 sequence (P13569 with tags, fused parts or gaps DEL508-508): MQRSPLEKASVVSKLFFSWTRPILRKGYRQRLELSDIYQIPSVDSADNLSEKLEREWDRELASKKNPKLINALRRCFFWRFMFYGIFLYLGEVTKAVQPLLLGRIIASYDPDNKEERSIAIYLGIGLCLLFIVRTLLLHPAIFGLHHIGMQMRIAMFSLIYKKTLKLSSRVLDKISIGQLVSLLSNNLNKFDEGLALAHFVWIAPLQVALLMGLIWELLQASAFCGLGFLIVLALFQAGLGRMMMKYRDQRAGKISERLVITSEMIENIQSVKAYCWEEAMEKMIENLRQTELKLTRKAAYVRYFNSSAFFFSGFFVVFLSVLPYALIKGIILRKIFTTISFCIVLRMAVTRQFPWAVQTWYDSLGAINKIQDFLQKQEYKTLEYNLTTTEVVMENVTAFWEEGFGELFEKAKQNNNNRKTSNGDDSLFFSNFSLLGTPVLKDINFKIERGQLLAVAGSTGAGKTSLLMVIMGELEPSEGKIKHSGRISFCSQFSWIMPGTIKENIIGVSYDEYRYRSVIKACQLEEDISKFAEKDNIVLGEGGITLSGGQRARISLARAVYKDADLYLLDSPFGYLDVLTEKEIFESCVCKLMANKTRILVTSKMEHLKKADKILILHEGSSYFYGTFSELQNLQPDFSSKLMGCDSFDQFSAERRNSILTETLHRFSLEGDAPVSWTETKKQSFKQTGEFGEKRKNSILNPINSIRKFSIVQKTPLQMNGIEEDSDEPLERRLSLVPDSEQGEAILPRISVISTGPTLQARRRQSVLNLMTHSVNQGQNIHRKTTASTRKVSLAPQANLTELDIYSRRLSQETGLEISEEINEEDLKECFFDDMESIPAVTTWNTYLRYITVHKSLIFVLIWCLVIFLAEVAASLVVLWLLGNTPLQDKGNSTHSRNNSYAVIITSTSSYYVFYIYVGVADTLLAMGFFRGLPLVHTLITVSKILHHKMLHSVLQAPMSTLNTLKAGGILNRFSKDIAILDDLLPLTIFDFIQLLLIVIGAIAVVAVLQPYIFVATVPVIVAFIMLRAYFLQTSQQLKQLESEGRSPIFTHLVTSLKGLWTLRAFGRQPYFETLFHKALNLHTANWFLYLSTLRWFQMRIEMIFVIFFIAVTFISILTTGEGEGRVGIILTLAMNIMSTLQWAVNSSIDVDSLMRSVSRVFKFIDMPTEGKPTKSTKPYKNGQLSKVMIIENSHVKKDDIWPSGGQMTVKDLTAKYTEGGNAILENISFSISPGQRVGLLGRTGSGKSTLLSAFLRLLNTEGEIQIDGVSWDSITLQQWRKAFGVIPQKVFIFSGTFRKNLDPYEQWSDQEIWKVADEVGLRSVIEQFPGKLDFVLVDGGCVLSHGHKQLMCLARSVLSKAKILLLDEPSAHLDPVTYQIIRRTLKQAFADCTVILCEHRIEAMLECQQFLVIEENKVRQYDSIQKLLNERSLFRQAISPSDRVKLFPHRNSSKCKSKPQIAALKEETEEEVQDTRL

Row | Compound | Maximum % activity (with co-corrector) [1] | pEC50 [2] | Emax [3] [%] | pEC50 [4] | pEC50 [5] | Maximum % activity (with co-corrector) (with co-corrector) | pEC50 [6] | Emax (without co-corrector) [%] | EC50 (with co-corrector) [1] | EC50 (without co-corrector) [3]
1 | CC(C)Oc1ncc(Br)cc1C1(C(=O)NS(=O)(=O)c2cccc3c2CCCN3)CC1 [Example GI-2, 1-{5-bromo-2-[(propan-2-yl)oxy]pyridin-3-yl}-N-(1,2,3,4-tetrahydroquinoline-5-sulfonyl)cyclopropane-1-carboxamide] | – | – | – | – | > 5.52 | +++ (≥350) | > 5.52 | > 150 | – | –
2 | O=C(NS(=O)(=O)c1cccc2c1CCCN2)C1(c2cc(C3CC3)cnc2N2CCCC2)CC1 [GII-29, 1-[5-cyclopropyl-2-(pyrrolidin-1-yl)pyridin-3-yl]-N-(1,2,3,4-tetrahydroquinoline-5-sulfonyl)cyclopropane-1-carboxamide] | +++ (≥350) | 5.00 to 5.52 | > 150 | 5.00 to 5.52 | – | – | – | – | – | –
3 | O=C(NS(=O)(=O)c1cccc2[nH]ccc12)C1(c2cc(C3CC3)cnc2N2CCCC2)CC1 [Example GI-34, 1-[5-cyclopropyl-2-(pyrrolidin-1-yl)pyridin-3-yl]-N-(1H-indole-4-sulfonyl)cyclopropane-1-carboxamide] | +++ (≥350) | > 5.52 | > 150 | 5.00 to 5.52 | – | – | – | – | – | –
4 | COc1ccc(C2CCC2)cc1C1(C(=O)NS(=O)(=O)c2cccc3nc(C)ccc23)CCC1 [Example I-33, 1-(5-cyclobutyl-2-methoxyphenyl)-N-(2-methylquinoline-5-sulfonyl)cyclobutane-1-carboxamide] | – | – | – | – | 5.00 to 5.52 | +++ (≥350) | > 5.52 | > 150 | – | –
5 | COCCOc1ncc(C)cc1C1(C(=O)NS(=O)(=O)c2cccc3ncccc23)CC1 [GII-52, 1-[2-(2-methoxyethoxy)-5-methylpyridin-3-yl]-N-(quinoline-5-sulfonyl)cyclopropane-1-carboxamide] | ++ (≥150 and <350) | 5.00 to 5.52 | 50 to 150 | 5.00 to 5.52 | – | – | – | – | – | –
6 | O=C(NS(=O)(=O)c1cccc2[nH]ccc12)C1(c2cc(C3CCC3)cnc2N2CCCC2)CC1 [Example GI-30, 1-[5-cyclobutyl-2-(pyrrolidin-1-yl)pyridin-3-yl]-N-(1H-indole-4-sulfonyl)cyclopropane-1-carboxamide] | +++ (≥350) | > 5.52 | > 150 | > 5.52 | – | – | – | – | – | –
7 | COc1ncc(C2(C(=O)NS(=O)(=O)c3cccc4ccccc34)CC2)c(OC)n1 [GII-1, 1-(2,4-dimethoxypyrimidin-5-yl)-N-(naphthalene-1-sulfonyl)cyclopropane-1-carboxamide] | ++ (≥150 and <350) | – | < 50 | – | – | – | – | – | ++^a | ++^a
8 | O=C(NS(=O)(=O)c1cccc2ccccc12)C1(c2cccc(Br)c2)CC1 [Example III-92, 1-(3-bromophenyl)-N-(naphthalene-1-sulfonyl)cyclopropane-1-carboxamide] | – | – | – | – | 5.00 to 5.52 | +++ (≥350) | 5.00 to 5.52 | > 150 | – | –
9 | COC[C@H](C)Oc1ccc(C)cc1C1(C(=O)NS(=O)(=O)c2cccc3nc(C)ccc23)CC1 [II-104] | – | – | – | – | > 5.52 | +++ (≥350) | > 5.52 | > 150 | – | –
10 | CN(C(=O)C1(c2ccc(Cl)cc2Cl)CC1)S(=O)(=O)c1ccc(Cl)cc1 [Example III-19, N-(4-chlorobenzene-1-sulfonyl)-1-(2,4-dichlorophenyl)-N-methylcyclopropane-1-carboxamide] | – | – | – | – | < 5.00 | + (<150) | < 5.00 | < 50 | – | –

Further lines, results first:

Row | Maximum % activity (with co-corrector) [1] | pEC50 [2] | Emax [3] [%] | pEC50 [4] | pEC50 [5] | Maximum % activity (with co-corrector) (with co-corrector) | pEC50 [6] | Emax (without co-corrector) [%] | EC50 (with co-corrector) [1] | EC50 (without co-corrector) [3] | Compound
11 | +++ (≥350) | > 5.52 | > 150 | 5.00 to 5.52 | – | – | – | – | – | – | CC(C)Oc1ncc(N(C)C)cc1C1(C(=O)NS(=O)(=O)c2cccc3ncccc23)CC1 [Example GI-71, 1-{5-(dimethylamino)-2-[(propan-2-yl)oxy]pyridin-3-yl}-N-(quinoline-5-sulfonyl)cyclopropane-1-carboxamide]
12 | – | – | – | – | 5.00 to 5.52 | ++ (≥150 and <350) | > 5.52 | < 50 | – | – | O=C(NS(=O)(=O)c1ccccc1OC(F)(F)F)C1(c2ccc(Cl)cc2Cl)CC1 [Example III-13, 1-(2,4-dichlorophenyl)-N-[2-(trifluoromethoxy)benzene-1-sulfonyl]cyclopropane-1-carboxamide]
13 | – | – | – | – | > 5.52 | +++ (≥350) | > 5.52 | > 150 | – | – | Cc1ccc(OC(C)C)c(C2(C(=O)NS(=O)(=O)c3cccc4ncccc34)CC2)c1 [Example I-77, 1-{5-methyl-2-[(propan-2-yl)oxy]phenyl}-N-(quinoline-5-sulfonyl)cyclopropane-1-carboxamide]
14 | – | – | – | – | > 5.52 | +++ (≥350) | > 5.52 | > 150 | – | – | COc1ccc(Cl)c(OC)c1C1(C(=O)NS(=O)(=O)c2cccc3ncccc23)CC1 [II-54]
15 | +++ (≥350) | > 5.52 | > 150 | > 5.52 | – | – | – | – | – | – | CC(C)COc1ncc(C2CC2)cc1C1(C(=O)NS(=O)(=O)c2cccc3[nH]ccc23)CC1 [Example GI-50, 1-[5-cyclopropyl-2-(2-methylpropoxy)pyridin-3-yl]-N-(1H-indole-4-sulfonyl)cyclopropane-1-carboxamide]
16 | +++ (≥350) | 5.00 to 5.52 | > 150 | 5.00 to 5.52 | – | – | – | – | – | – | CCc1cnc(N2CCCC2)c(C2(C(=O)NS(=O)(=O)c3cccc4ncccc34)CC2)c1 [GII-30, 1-[5-ethyl-2-(pyrrolidin-1-yl)pyridin-3-yl]-N-(quinoline-5-sulfonyl)cyclopropane-1-carboxamide]
17 | – | – | – | – | > 5.52 | +++ (≥350) | > 5.52 | > 150 | – | – | COc1ccc(C(C)(C)C)cc1C1(C(=O)NS(=O)(=O)c2cccc3nc(C)ccc23)CC1 [Example I-70, 1-(5-tert-butyl-2-methoxyphenyl)-N-(2-methylquinoline-5-sulfonyl)cyclopropane-1-carboxamide]
18 | +++ (≥350) | 5.00 to 5.52 | > 150 | 5.00 to 5.52 | – | – | – | – | – | – | COc1nc(N(C)C)ccc1C1(C(=O)NS(=O)(=O)c2cccc3ncccc23)CC1 [GII-18, 1-[6-(dimethylamino)-2-methoxypyridin-3-yl]-N-(quinoline-5-sulfonyl)cyclopropane-1-carboxamide]
19 | – | – | – | – | > 5.52 | +++ (≥350) | > 5.52 | > 150 | – | – | Cc1ccc(OC(C)C)c(C2(C(=O)NS(=O)(=O)c3cccc4nc(C)ccc34)CC2)c1 [Example I-78, 1-{5-methyl-2-[(propan-2-yl)oxy]phenyl}-N-(2-methylquinoline-5-sulfonyl)cyclopropane-1-carboxamide]
